Here are results for three molecules from patent publication EP0428423A2, “Aryloxy alkyl benzenes, processes for their preparation and pharmaceutical compositions containing them” (LIPHA S.A., priority 1989, dated 1991).

One assay concerns SOURIS. Nature of the assay: Diuretic activity in the mouse (hourly urine volume, sodium and potassium assay). In kind it is in vivo. Particulars: S = SOURIS. The source says: (§1) d'urine sont déterminés toutes les heures. Le dosage de sodium et du potassium est effectué par spectrophotométrie.
Assay [1] concerns rats mâles SHR (souche OKAMOTO). The experiment in a line: Antihypertensive action in the non-anaesthetised SHR rat (systolic blood pressure, sphygmomanometric method). The class given is in vivo. Particulars: 60 mg/kg PO, acute or chronic not given, 24 h after dosing. The source says: L'étude a été effectuée sur des lots de rats mâles SHR (souche OKAMOTO) âgés de 16 semaines. La pression artérielle systolique est déterminée par la méthode sphygmomanométrique (électro sphygmogra- phe NARCO biosystems type PE 300). Les mesures de tension sont réalisées 24 heures après administration d'un composé de formule générale I, la pression artérielle systolique est calculée à partir de la moyenne de 6 à 8 mesures.

Another assay deals with RAT. Nature of the assay: Diuretic activity in the rat (hourly urine volume, sodium and potassium assay). Particulars: po; R = RAT; diuretic activity; read-out: Dose minimale active. In kind it is in vivo.
Source text: as §1

A further assay addresses T1, lipoxygénase de soja (Glycine max, UniProt P08170).
T1 sequence (P08170 1-839): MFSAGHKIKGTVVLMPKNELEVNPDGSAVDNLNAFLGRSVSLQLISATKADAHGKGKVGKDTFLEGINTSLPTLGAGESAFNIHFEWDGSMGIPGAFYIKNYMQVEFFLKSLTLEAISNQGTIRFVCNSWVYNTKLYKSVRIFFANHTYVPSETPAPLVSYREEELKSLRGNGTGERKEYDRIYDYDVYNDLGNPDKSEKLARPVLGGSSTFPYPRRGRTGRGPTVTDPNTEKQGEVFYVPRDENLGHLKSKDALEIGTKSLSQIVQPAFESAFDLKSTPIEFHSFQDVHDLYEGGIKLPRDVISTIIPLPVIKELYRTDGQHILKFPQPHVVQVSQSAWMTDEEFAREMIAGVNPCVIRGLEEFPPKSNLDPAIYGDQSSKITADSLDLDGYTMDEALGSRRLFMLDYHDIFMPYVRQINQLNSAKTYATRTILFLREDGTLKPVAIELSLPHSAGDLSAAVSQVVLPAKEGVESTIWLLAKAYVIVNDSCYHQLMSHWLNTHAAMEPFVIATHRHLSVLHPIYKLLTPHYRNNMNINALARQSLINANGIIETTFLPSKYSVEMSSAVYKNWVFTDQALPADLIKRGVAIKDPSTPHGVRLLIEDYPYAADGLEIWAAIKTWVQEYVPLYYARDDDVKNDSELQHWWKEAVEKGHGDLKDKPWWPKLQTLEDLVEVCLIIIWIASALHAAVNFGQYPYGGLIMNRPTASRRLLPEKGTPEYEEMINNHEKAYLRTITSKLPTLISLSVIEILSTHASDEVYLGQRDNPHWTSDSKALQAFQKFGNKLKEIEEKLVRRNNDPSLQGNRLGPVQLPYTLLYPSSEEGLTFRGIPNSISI
Nature of the assay: Anti-lipoxygenase action on soybean lipoxygenase. In kind it is biochemical. The source says: L'action anti-lipoxygénase a été étudiée sur la lipoxygénase de soja selon la méthode décrite par W.L SMITH et W.E LANDS (J. Biol. Chem. 247 (1972) 1038-1047)

The next assay addresses T2, ECHANGEUR D'ANIONS (Homo sapiens, UniProt P02730).
T2 construct: systèmes de transport du sodium et du potassium des érythrocytes humains; endogenous in cells; host or cells: human erythrocytes
T2 sequence (P02730 1-911): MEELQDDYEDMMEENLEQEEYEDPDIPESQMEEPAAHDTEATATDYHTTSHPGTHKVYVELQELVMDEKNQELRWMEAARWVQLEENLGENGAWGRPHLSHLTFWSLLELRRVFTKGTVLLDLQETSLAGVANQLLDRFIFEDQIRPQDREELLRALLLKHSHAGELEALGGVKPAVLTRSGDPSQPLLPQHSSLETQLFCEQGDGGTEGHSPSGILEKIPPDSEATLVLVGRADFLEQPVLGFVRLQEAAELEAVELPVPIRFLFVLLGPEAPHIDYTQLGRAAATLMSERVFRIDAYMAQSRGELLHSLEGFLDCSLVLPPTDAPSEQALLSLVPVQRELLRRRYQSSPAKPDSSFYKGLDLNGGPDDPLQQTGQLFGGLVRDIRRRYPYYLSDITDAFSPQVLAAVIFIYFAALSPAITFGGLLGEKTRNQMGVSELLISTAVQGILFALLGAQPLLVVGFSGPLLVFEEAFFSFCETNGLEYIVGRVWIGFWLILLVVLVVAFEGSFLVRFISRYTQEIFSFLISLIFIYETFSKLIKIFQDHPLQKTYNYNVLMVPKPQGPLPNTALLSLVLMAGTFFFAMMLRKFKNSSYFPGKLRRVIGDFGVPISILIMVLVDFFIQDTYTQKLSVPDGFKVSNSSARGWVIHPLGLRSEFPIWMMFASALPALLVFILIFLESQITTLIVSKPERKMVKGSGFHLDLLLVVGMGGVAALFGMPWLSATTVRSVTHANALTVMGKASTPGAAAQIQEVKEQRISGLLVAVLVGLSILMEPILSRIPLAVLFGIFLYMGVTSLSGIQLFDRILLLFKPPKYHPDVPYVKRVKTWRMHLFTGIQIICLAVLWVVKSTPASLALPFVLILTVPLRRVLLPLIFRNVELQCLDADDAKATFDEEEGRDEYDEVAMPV
The experiment in a line: Anion exchanger of human erythrocytes. The class given is cell-based, ERYTHROCYTES HUMAINS. The source says: Cet effet a été étudié selon la méthodologie décrite par G. GARAY et coll. dans Naunyn-Schmidberg's Arch. Pharmakol. 334 (1986) 202-209 et dans Bioch. Pharm. 33 (1984) 2013-2020.

For assay [2], the system named is plasmas riches en plaquettes provenant de sang de rat. Nature of the assay: Platelet anti-aggregation in vitro, ADP-induced (Born aggregometer). In kind it is cell-based. To be noted: in vitro, aggregating agent ADP, rat platelet-rich plasma, 37°; M not defined in the text; mM printed only in the TICLOPIDINE line. Here is the method: Les études ont été réalisées sur des plasmas riches en plaquettes provenant de sang de rat, l'agrégation étant induite par addition d'acide Adénosine diphosphorique. Les courbes néphélométriques d'agrégation sont obtenues en utilisant un agrégomètre de type BORN, le plasma étant placé en incubation à 37° avec agitation continue de 1100 t/mn (cf. BORN G.V.R et CROSS J. - J. Physiol. 168 (1962) 178.

A further assay addresses T3, COTRANSPORT Na-K (Homo sapiens, UniProt P55011).
T3 construct: systèmes de transport du sodium et du potassium des érythrocytes humains; endogenous in cells; host or cells: human erythrocytes
T3 sequence (P55011 1-1212): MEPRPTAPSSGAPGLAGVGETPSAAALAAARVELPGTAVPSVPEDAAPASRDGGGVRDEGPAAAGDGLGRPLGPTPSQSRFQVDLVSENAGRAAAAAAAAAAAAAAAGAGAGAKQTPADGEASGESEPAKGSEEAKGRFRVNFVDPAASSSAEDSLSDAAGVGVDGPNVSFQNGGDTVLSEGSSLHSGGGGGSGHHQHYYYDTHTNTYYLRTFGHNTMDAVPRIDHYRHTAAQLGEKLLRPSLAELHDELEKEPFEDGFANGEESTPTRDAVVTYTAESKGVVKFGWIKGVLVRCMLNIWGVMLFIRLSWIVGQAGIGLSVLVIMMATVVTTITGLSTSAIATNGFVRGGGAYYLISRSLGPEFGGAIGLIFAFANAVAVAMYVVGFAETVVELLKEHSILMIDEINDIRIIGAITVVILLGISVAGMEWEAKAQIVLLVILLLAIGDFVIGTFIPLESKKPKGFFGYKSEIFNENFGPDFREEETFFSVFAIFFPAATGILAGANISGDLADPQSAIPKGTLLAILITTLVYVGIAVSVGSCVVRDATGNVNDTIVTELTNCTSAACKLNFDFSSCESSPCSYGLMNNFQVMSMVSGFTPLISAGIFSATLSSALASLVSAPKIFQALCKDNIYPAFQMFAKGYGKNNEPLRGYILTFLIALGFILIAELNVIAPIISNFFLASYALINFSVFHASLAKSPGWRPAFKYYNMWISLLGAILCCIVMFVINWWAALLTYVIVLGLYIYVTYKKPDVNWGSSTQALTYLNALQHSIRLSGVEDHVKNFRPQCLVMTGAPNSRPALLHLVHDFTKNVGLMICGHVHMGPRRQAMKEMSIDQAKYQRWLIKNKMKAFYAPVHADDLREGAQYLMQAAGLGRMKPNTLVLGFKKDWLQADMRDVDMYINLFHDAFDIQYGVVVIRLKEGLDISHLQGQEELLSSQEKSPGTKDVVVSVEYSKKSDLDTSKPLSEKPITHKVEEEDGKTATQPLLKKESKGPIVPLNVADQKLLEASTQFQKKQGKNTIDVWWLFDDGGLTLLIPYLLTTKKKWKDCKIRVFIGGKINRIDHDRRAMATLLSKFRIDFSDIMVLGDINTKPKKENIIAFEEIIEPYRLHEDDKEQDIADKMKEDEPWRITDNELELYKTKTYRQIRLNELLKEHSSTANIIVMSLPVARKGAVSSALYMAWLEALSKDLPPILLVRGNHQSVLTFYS
The experiment in a line: Na-K cotransport of human erythrocytes. In kind it is cell-based, ERYTHROCYTES HUMAINS. To be noted: human erythrocytes. The source says: Cet effet a été étudié selon la méthodologie décrite par G. GARAY et coll. dans Naunyn-Schmidberg's Arch. Pharmakol. […] Pharm.

Where [3] appears, read: PO, at the dose (minimal active dose).

Take `NS(=O)(=O)c1cc(C(=O)O)c(NCc2ccco2)cc1Cl` [FUROSEMIDE, reference compound]: the minimal effective dose in the assay with SOURIS (Mus musculus, po, diuretic activity, read-out: Dose minimale active) came out at 25 mg/kg; in the assay with RAT, 12 mg/kg. In addition, the “Variation de l'effet anti-hyper-tenseur 24 heures après produit” value in assay [1] is “FUROSEMIDE non actif HYDROCHLOROTHIAZIDE non actif”.

`NS(=O)(=O)c1cc2c(cc1Cl)NCNS2(=O)=O` [HYDROCHLOROTHIAZIDE]: the “Variation de l'effet anti-hyper-tenseur 24 heures après produit” value in assay [1] is on record as “FUROSEMIDE non actif HYDROCHLOROTHIAZIDE non actif”.

Regarding `COc1cccc(CCOc2ccc(F)cc2)c1` [ex 169], at lipoxygénase de soja, the “ACTIVITE ANTI-LIPOXYGENASE IC 50” value is “Inactif”. Further, in the assay with SOURIS (setting [3]), the “Pouvoir diurétique en %” value was “Inactif” and the “Rapport Na/K en %” value was “Inactif”. The minimal effective dose in the assay with RAT was determined as 12 mg/kg. Also, at ECHANGEUR D'ANIONS, the “EFFET SUR L'ECHANGEUR D'ANIONS IC 50” value is listed as “Non actif”. Besides, the “M à 50” value in assay [2] is given as “inactif”. In addition, the “EFFET SUR LE COTRANSPORT Na-K IC 50” value at COTRANSPORT Na-K was “Non actif”.
